The source of these data is patent publication US8993717B2, “Gadd45beta targeting agents” (Imperial Innovations Limited, priority 2009, dated 2015).

Where “and” joins values, the source holds several entries; their conditions need not be identical. Equal values may be shown once. Read-outs that look alike come from different tables or passages of the source. Square brackets hold non-standard residues; d marks the D form. Peptide text beside a SMILES is read from it. * marks the point of attachment. Cbz = O=C(OCc1ccccc1)*

Data set [1] relates to IKK/NF-κB, ERK and p38 pathways. Put plainly: Activation of IKK/NF-κB, ERK and p38 pathways in multiple myeloma cells. The format is cell-based, human. The conditions noted are these: data not shown.
In another data set the target is T1, Gadd45β/MKK7 interaction (Homo sapiens, UniProt O14733).
T1 construct: The GST-fused full-length kinase was coated for 16 h at 4° C., at a concentration of 42 nM; made in house
T1 sequence (O14733 1-419): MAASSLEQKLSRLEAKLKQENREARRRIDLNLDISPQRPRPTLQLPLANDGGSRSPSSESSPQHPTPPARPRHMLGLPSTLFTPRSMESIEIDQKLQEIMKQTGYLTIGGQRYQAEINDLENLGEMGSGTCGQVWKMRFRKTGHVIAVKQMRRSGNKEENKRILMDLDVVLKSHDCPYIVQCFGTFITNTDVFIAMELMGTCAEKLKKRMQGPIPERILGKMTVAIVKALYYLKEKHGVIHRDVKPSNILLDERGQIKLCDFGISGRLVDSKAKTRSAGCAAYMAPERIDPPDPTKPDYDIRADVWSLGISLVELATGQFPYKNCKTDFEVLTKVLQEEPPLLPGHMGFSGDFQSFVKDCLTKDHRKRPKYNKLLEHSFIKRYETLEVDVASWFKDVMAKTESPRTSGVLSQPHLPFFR
Put plainly: ELISA competition assay after 48-hr pre-incubation with human serum at 37° C. The conditions noted are these: for stability after pre-incubation with human serum: result in words. The format is binding. On the procedure: In FIG. 4, Gadd45β/MKK7 binding, competition ELISA assays were carried out to determine the stability of Z-conjugated D-tetrapeptides in human serum. […] ELISA were performed as described in FIG. 3 C. Briefly, 100 μl of 42 nM of recombinant GST-MKK7 in ELISA buffer (25 mM Tris pH 7.5, 150 mM NaCl, 1 mM DTT, 1 mM EDTA) were coated onto wells of 96-well plates by overnight incubation at 4° C. After blocking with 2% of NFDM for 1 hr at 37° C., plates were washed with TPBS, and then 21 nM of recombinant, biotinylated human (h)Gadd45β were added to the wells together with increasing concentrations of tetrapeptides which had either been subjected or had not been subjected to pre-incubation with human serum, as indicated. For a further discussion of the conditions used for the competition ELISA assay, the reader is directed to Tornatore et al 2008 JMB, 378: 97-111 and the references therein.

In data set [2] the test system is KMS12 multiple myeloma cells. Put plainly: [3H]thymidine incorporation assay in KMS12. To be noted: read-out: IC50 [H^3] thymidine incorporation assay in KMS12. Format: cell-based, human. On the technique in general: Incorporation of labelled thymidine or its analogues reports DNA synthesis.
Experimental: In these latter assays, the effects of Z-DTPs, Ac-DTPs and Z-LTPs on the survival/proliferation of tumour cell lines was investigated by measuring DNA synthesis using standard tritiated thymidine ([^3H]thymidine; [^3H]-TdR) uptake assays. In the analyses shown, cells were incubated for 24, 72, 120 or 144 hrs at 37° C. in the presence or absence of control or bioactive tetrapeptides, as indicated, then subjected to an additional incubation for 18 hrs with [^3H]-TdR (0.037 MBq/well, equivalent to 0.5 μCi/well). Cells were subsequently harvested onto glass fibre filter mats using a 96-well plate automated cell harvester, after which scintillation fluid was added, and [^3H]thymidine incorporation measured by liquid scintillation spectroscopy on a beta counter. The results are expressed as the percentages of the counts per minute (c.p.m.) (directly correlating with the extent of cell proliferation) measured with tetrapeptide-treated cultures relative to the c.p.m. measured with the corresponding cultures incubated with medium alone (untreated cells). All experiments were performed in triplicate.
In data set [3] the test system is KMS11 multiple myeloma cells. Put plainly: [3H]thymidine incorporation assay in KMS11. The format is cell-based, human. To be noted: read-out: IC50 [H^3] thymidine incorporation assay in KMS11. On the procedure:
Cultures of multiple myeloma cells and treatments with Z-DTPs were carried out as described in Example 8 (see below). The effects of Z-DTPs on the survival/proliferation of multiple myeloma cells were evaluated by the use of [^3H]thymidine) incorporation assays, performed as also described in Example 8. The amount of cell proliferation measured with each of the Z-DTPs' concentrations used and with the untreated cultures (i.e. cultures incubated with medium alone), was expressed as counts per minute (c.p.m.)—which directly correlate with the extent of cell proliferation. All experiments were performed in triplicate.
In these latter assays, the effects of Z-DTPs, Ac-DTPs and Z-LTPs on the survival/proliferation of tumour cell lines was investigated by measuring DNA synthesis using standard tritiated thymidine ([^3H]thymidine; [^3H]-TdR) uptake assays. In the analyses shown, cells were incubated for 24, 72, 120 or 144 hrs at 37° C. in the presence or absence of control or bioactive tetrapeptides, as indicated, then subjected to an additional incubation for 18 hrs with [^3H]-TdR (0.037 MBq/well, equivalent to […]). Cells were subsequently harvested onto glass fibre filter mats using a 96-well plate automated cell harvester, after which scintillation fluid was added, and [^3H]thymidine incorporation measured by liquid scintillation spectroscopy on a beta counter. The results are expressed as the percentages of the counts per minute (c.p.m.) (directly correlating with the extent of cell proliferation) measured with tetrapeptide-treated cultures relative to the c.p.m. measured with the corresponding cultures incubated with medium alone (untreated cells). All experiments were performed in triplicate.

Data set [4] is described as follows: Mouse pharmacokinetics study, single i.v. injection. The conditions noted are these: for Last Time point: in h (unit assumed); for kel: 0.693/t1/2, table note; for half-life / clearance / Vd: male, CD1, mouse; for C0 / MRT inf / AUC: mouse; for AUC: read-out: AUC to Last; for acute toxicity in mice: single i.v. dose 10 mg/kg. The format is in vivo, male CD1 mice. On the procedure:
Z-DTP2 and Z-mDTP3 were administered intravenously to mice. Blood samples were collected at up to 7 time points after intravenous (i.v.) injection of the compounds over 8 hrs, and plasma was analysed by LC-MS/MS to determine the concentration of the compounds at each time point.
Three male CD1 mice, 25-30 grams each, were dosed per administration route per time-point, per compound. The test compound was administered intravenously (at a typical dose level of 10 mg of compound per kg of body weight). Animals were given free access to food throughout the study.
Blood samples were centrifuged to obtain the plasma, which was then transferred to a separate labelled container. Aliquots from the individual time points for the three animals were analysed singly. Proteins were precipitated by adding three volumes of methanol and centrifuging for 30 min at 4° C. Aliquots of 100 μl of the resulting supernatants were diluted with 200 μl of HPLC grade water in wells of a 96-well plate.
Standard curves were prepared in blank plasma matrices and treated in an identical manner to the samples. The plasma samples were quantified by LC-MS/MS, and the concentration of each compound in the plasma were reported in μg/mL.
Pharmacokinetic parameters were calculated employing non-compartmental model analysis, as described in the web site http://www.pharsight.com/main.php
The test compound concentration in plasma samples was measured by LC-MS/MS. The data were quantified using a five-point standard curve over a range of 3-3000 ng/mL.
Proteins were precipitated from 50 μL aliquots of the individual plasma samples by adding 150 μL methanol. Following protein precipitation, plasma samples were centrifuged for 30 min at 4° C. Aliquots of 100 μL of the resulting supernatant were diluted with 200 μL of HPLC grade water in a 96 well plate. The test compound was then quantified by LC-MS/MS from a five-point standard curve prepared by spiking plasma with varying concentrations of test compound dissolved in DMSO over a final concentration range of 3-3000 ng/mL (final DMSO concentration 1%) and treated in an identical manner to the test samples as described above.

Setting [5] is: plasma, iv, 10 mg/kg, 10 mg/kg i.v., male CD1 mice, read-out: Total CL (converted).
Setting [6] is: plasma, iv, 10 mg/kg, 10 mg/kg i.v., male CD1 mice, read-out: Vss.
Where [7] appears, read: plasma, iv, 10 mg/kg, 10 mg/kg i.v., male CD1 mice, read-out: Vβ.
The mark [8] stands for this setting: plasma, iv, 10 mg/kg i.v., male CD1 mice.

Take `NC(=O)[C@@H](Cc1ccccc1)NC(=O)[C@@H](Cc1c[nH]cn1)NC(=O)[C@@H](CC(=O)O)NC(=O)[C@@H](Cc1ccc(O)cc1)NC(=O)OCc1ccccc1` [Compound 1, Z-Tyr-Asp-His-Phe-NH2] (Cbz-[dY][dD][dH][dF]-NH2): in data set [1], the “effects on the IKK/NF-κB, ERK and p38 pathways” value is “no effects were observed”. For the same compound, at Gadd45β/MKK7 interaction, the IC50 came out at 0.19 nM and the “stability after pre-incubation with human serum” value is given as “completely stable”.
As usually defined, the MRT inf is a mean duration of stay, worked out from the concentration-time curve. As a reminder, the AUC is the area under the concentration-time curve, a measure of exposure. As for `N=C(N)NCCC[C@@H](NC(=O)[C@@H](CCC(=O)O)NC(=O)[C@@H](Cc1ccc(O)cc1)NC(=O)OCc1ccccc1)C(=O)N[C@H](Cc1ccccc1)C(N)=O` [Compound 9, Z-D-Tyr-D-Glu-D-Arg-D-Phe-NH2] (Cbz-[dY][dE][dR][dF]-NH2), the IC50 was 0.18 nM at Gadd45β/MKK7 interaction; 1300 nM in data set [2] (Day 1); 144 nM in data set [2] (Day 3, listed as Z-DTP2); 141 nM in data set [2] (Day 3); 66 nM in data set [2] (Day 6); 2880 nM in data set [3] (Day 1, listed as Z-DTP2). Besides, the IC50 in data set [3] (Day 1) is 2900 nM; in data set [3] (Day 3), 25.7 nM; in data set [3] (Day 6), 66 nM. Further, the “stability after pre-incubation with human serum” value at Gadd45β/MKK7 interaction is given as “completely stable”. In addition, the “Last Time point” value in data set [4] (10 mg/kg i.v., male CD1 mice) was determined as 8.0. Besides, the kel result in data set [4] is listed as “kel/t1/2 = 0.693/2.08 = 0.3323 hr^−1”. For the same compound, the half-life in data set [4] (in vivo, iv, 10 mg/kg, T1/2) is 2.08 h; in data set [4] (plasma, intravenous, text b344, read-out: half-lives in vivo (converted)), around 2 h; in data set [4] (plasma, iv, mice, read-out: initial distributive half-life), around 0.0833 h; in data set [4] (plasma, iv, mice, read-out: terminal half-life (converted)) it was around 8 h. For the same compound, the clearance was 2.18 mL/min and 78.1 mL/min/kg in data set [4] (setting [5]); 66 to 90 mL/min/kg in data set [4] (plasma, iv, mice, read-out: values of total clearance in the range). In addition, the Vd is 0.126 L in data set [4] (setting [6]) and 0.394 L in data set [4] (setting [7]). In data set [4] (setting [8]), this compound displayed a C0 of 8740 ng/mL. This compound also registered an MRT inf in data set [4] (setting [8]) of 0.973 h. Moreover, the AUC in data set [4] (setting [8]) was 2080 ng·h/mL. Besides, the “acute toxicity in mice” value in data set [4] was “absence of acute toxicity”.
As to `CC(=O)N[C@H](Cc1ccc(O)cc1)C(=O)N[C@H](CCCNC(=N)N)C(=O)N[C@H](Cc1ccccc1)C(N)=O` [Compound 17, Ac-D-Tyr-D-Arg-D-Phe-NH2] (Ac-[dY]-[dR]-[dF]-NH2), the “effects on the IKK/NF-κB, ERK and p38 pathways” value in data set [1] was “no effects were observed”. The IC50 in data set [2] (Day 1) turned out to be 354 nM; in data set [2] (Day 3) it was 81 nM; in data set [2] (Day 6, listed as mDTP3) it was 25 nM; in data set [2] (Day 6), 16 nM; in data set [3] (Day 1) it was 1000 nM; in data set [3] (Day 6, listed as mDTP3), 16 nM. Also, the IC50 in data set [3] (Day 6) is 25 nM. Further, in data set [4] (10 mg/kg i.v., male CD1 mice), the “Last Time point” value amounted to 6.667. The kel entry in data set [4] is given as “kel/t1/2 = 0.693/2.08 = 0.3323 hr^−1”. Also, in data set [4] (i.v., mice), the “total clearance, times lower than that of Z-DTP2” value worked out at 3 times. In addition, the half-life is 1.26 h in data set [4] (in vivo, iv, 10 mg/kg, T1/2); around 0.0833 h in data set [4] (plasma, iv, 10 mg/kg, i.v., mice, read-out: initial distributive half-life); around 8 h in data set [4] (plasma, iv, 10 mg/kg, i.v., mice, read-out: terminal half-life (converted)). Besides, the clearance in data set [4] (setting [5]) was 0.736 mL/min and 27.1 mL/min/kg; in data set [4] (plasma, iv, 10 mg/kg, i.v., mice, read-out: values of total clearance in the range), 22 to 27 mL/min/kg. In addition, the Vd in data set [4] (setting [6]) was determined as 0.0126 L; in data set [4] (setting [7]), 0.0756 L. Also, the C0 in data set [4] (setting [8]) was found to be 29100 ng/mL. Moreover, in data set [4] (setting [8]), the MRT inf is 0.281 h. For the same compound, the AUC in data set [4] (setting [8]) is 6430 ng·h/mL. In addition, the “acute toxicity in mice” value in data set [4] was “absence of acute toxicity”.
